Source: the NIST ThermoML archive (doi:10.1016/j.jct.2018.02.013)

Legend:
[1] = 101.33 kPa, Liquid; for thermal conductivity: transient hot wire; for mass density: Vibrating tube method; for viscosity: Cone and plate viscometry; for electrical conductivity: Direct current cell with electrodes
[2] = molar heat capacity at constant pressure; conditions: 101.33 kPa, Liquid, Small sample (50 mg) DSC

CCCCCCCC(=O)[O-].CCCCCCCCCCCCCC[P+](CCCCCC)(CCCCCC)CCCCCC [trihexyl(tetradecyl)phosphonium octanoate]
Conditions	electrical conductivity [S/m]	mass density [kg/m3]	molar heat capacity at constant pressure [J/K/mol]	thermal conductivity [W/m/K]	viscosity [mPa·s]
[1], 278.28 K	–	–	–	0.1611	–
[1], 288.24 K	–	–	–	0.1601	–
[1], 293.15 K	–	884.5	–	–	–
[1], 293.2 K	–	–	–	–	513.6
[1], 297.87 K	–	–	–	0.1581	–
[1], 298.15 K	–	881.4	–	–	–
[1], 298.2 K	–	–	–	–	400.2
[1], 300.6 K	0.00251	–	–	–	–
[1], 303.15 K	–	878.4	–	–	–
[1], 303.2 K	–	–	–	–	301.2
[1], 303.6 K	0.00345	–	–	–	–
[1], 307.71 K	–	–	–	0.1567	–
[1], 308 K	0.00428	–	–	–	–
[1], 308.2 K	–	–	–	–	230.8
[1], 313.15 K	–	872.1	–	–	–
[1], 313.2 K	–	–	–	–	179.3
[1], 313.4 K	0.0057	–	–	–	–
[1], 317.92 K	–	–	–	0.1561	–
[1], 318.2 K	–	–	–	–	141.2
[1], 319 K	0.0073	–	–	–	–
[1], 323.15 K	–	865.9	–	–	–
[1], 323.2 K	–	–	–	–	113
[1], 323.8 K	0.0091	–	–	–	–
[1], 328.17 K	–	–	–	0.1547	–
[1], 328.2 K	–	–	–	–	91.42
[1], 328.4 K	0.011	–	–	–	–
[1], 333.15 K	–	859.8	–	–	–
[1], 333.2 K	0.0137	–	–	–	75.22
[1], 337.66 K	–	–	–	0.1527	–
[1], 338.2 K	–	–	–	–	62.47
[1], 338.6 K	0.017	–	–	–	–
[1], 343 K	0.0198	–	–	–	–
[1], 343.15 K	–	853.7	–	–	–
[1], 343.2 K	–	–	–	–	52.65
[1], 347.76 K	–	–	–	0.1507	–
[1], 348.2 K	–	–	–	–	44.4
[1], 349.5 K	0.0247	–	–	–	–
[1], 353.15 K	–	847.6	–	–	–
[1], 353.2 K	–	–	–	–	37.98
[1], 358.08 K	–	–	–	0.1497	–
[1], 358.2 K	–	–	–	–	32.78
[1], 363.15 K	–	841.6	–	–	–
[1], 363.2 K	–	–	–	–	28.12
[1], 368.2 K	–	–	–	–	24.48
[2], 293.15 K	–	–	1138.1	–	–
[2], 298.15 K	–	–	1150.7	–	–
[2], 303.15 K	–	–	1160.7	–	–
[2], 308.15 K	–	–	1170.1	–	–
[2], 313.15 K	–	–	1178.9	–	–
[2], 318.15 K	–	–	1185.8	–	–
[2], 323.15 K	–	–	1192.7	–	–
[2], 328.15 K	–	–	1199.6	–	–
[2], 333.15 K	–	–	1206.5	–	–
[2], 338.15 K	–	–	1213.4	–	–
[2], 343.15 K	–	–	1220.9	–	–
[2], 348.15 K	–	–	1228.4	–	–
[2], 353.15 K	–	–	1235.3	–	–
[2], 358.15 K	–	–	1242.2	–	–
[2], 363.15 K	–	–	1247.2	–	–

CCCCCCCCCC(=O)[O-].CCCCCCCCCCCCCC[P+](CCCCCC)(CCCCCC)CCCCCC [trihexyltetradecylphosphonium decanoate]
Conditions	electrical conductivity [S/m]	mass density [kg/m3]	molar heat capacity at constant pressure [J/K/mol]	thermal conductivity [W/m/K]	viscosity [mPa·s]
[1], 278.09 K	–	–	–	0.1601	–
[1], 288 K	–	–	–	0.1591	–
[1], 293.15 K	–	880.4	–	–	–
[1], 293.2 K	–	–	–	–	546.3
[1], 297.79 K	–	–	–	0.1571	–
[1], 298.15 K	–	877.3	–	–	–
[1], 298.2 K	–	–	–	–	409.8
[1], 298.8 K	0.00174	–	–	–	–
[1], 303.15 K	–	874.6	–	–	–
[1], 303.2 K	–	–	–	–	314.5
[1], 303.8 K	0.00239	–	–	–	–
[1], 308 K	0.00297	–	–	–	–
[1], 308.16 K	–	–	–	0.1545	–
[1], 308.2 K	–	–	–	–	242.5
[1], 313.15 K	–	868.1	–	–	–
[1], 313.2 K	–	–	–	–	189.8
[1], 313.8 K	0.00395	–	–	–	–
[1], 318.13 K	–	–	–	0.1542	–
[1], 318.2 K	–	–	–	–	151.3
[1], 319.6 K	0.00506	–	–	–	–
[1], 323.15 K	–	862	–	–	–
[1], 323.2 K	0.00631	–	–	–	121.8
[1], 326.82 K	–	–	–	0.1535	–
[1], 328.2 K	0.00763	–	–	–	99.78
[1], 333.15 K	–	855.7	–	–	–
[1], 333.2 K	–	–	–	–	82.68
[1], 333.4 K	0.00949	–	–	–	–
[1], 338.2 K	–	–	–	–	68.76
[1], 338.3 K	0.0118	–	–	–	–
[1], 338.5 K	–	–	–	0.1515	–
[1], 343.15 K	–	849.7	–	–	–
[1], 343.2 K	–	–	–	–	58.07
[1], 343.5 K	0.0137	–	–	–	–
[1], 347.3 K	–	–	–	0.1502	–
[1], 348.2 K	–	–	–	–	49.28
[1], 349.7 K	0.0171	–	–	–	–
[1], 353.15 K	–	843.3	–	–	–
[1], 353.2 K	–	–	–	–	42.21
[1], 358.2 K	–	–	–	–	36.41
[1], 358.21 K	–	–	–	0.1493	–
[1], 363.15 K	–	837.4	–	–	–
[1], 363.2 K	–	–	–	–	31.71
[1], 368.2 K	–	–	–	–	27.59
[2], 293.15 K	–	–	1181.2	–	–
[2], 298.15 K	–	–	1191.7	–	–
[2], 303.15 K	–	–	1199.5	–	–
[2], 308.15 K	–	–	1209.3	–	–
[2], 313.15 K	–	–	1217.2	–	–
[2], 318.15 K	–	–	1221.8	–	–
[2], 323.15 K	–	–	1230.3	–	–
[2], 328.15 K	–	–	1238.2	–	–
[2], 333.15 K	–	–	1246	–	–
[2], 338.15 K	–	–	1250.6	–	–
[2], 343.15 K	–	–	1264.4	–	–
[2], 348.15 K	–	–	1269.6	–	–
[2], 353.15 K	–	–	1278.8	–	–
[2], 358.15 K	–	–	1285.3	–	–
[2], 363.15 K	–	–	1296.5	–	–
